Test results from PMC11503492, “Activity-Based DNA-Encoded Library Screening for Selective Inhibitors of Eukaryotic Translation” (ACS Central Science, 2024).

Columns and labels:
[1] = test system: PCSK9[1:33]-GFP translation; test: Wheat germ lysate (WG) IVTT microplate activity assay, PCSK9[1:33]-GFP template; type: biochemical; details: WG IVTT; for IC50: PCSK9[1:33]-GFP template, triplicate, ± standard deviation of the mean
Text: (§1) A commercially available wheat germ lysate (WG) IVTT system was employed to assay translation inhibition. Translation activity was detected via a GFP reporter, and the assay was miniaturized to picoliter-scale microfluidic droplets (Figure 1A,B). […] PCSK9 and RPL27 were truncated to the first 33 and 32 amino acids, respectively (PCSK9[1:33] and RPL27[1:32]). The sequences contain distinct PF846 stall sites and were both fused to a GFP reporter. The GFP reporter and a frameshift mutant of PCSK9[1:33] (PCSK9-FS[1:33]), which mutates the nascent chain sequence while maintaining a nearly identical mRNA sequence, were included as negative controls.[13] […] Sequence sensitivity was further confirmed by an N-terminal deletion series of PCSK9[1:33]-GFP; deletion of N-terminal residues increasingly ablated PCSK9[1:33]-GFP translation sensitivity to PF846 (Figure 1D). The WG IVTT assay was miniaturized using a previously described microfluidic circuit modified for longer incubation times (Figure S1)[27] using PF846 as a positive control compound, and assay statistical quality was calculated (Z′=0.7) (Figure 1E). To confirm detection of translation inhibition from library beads, hygromycin B, a nonselective aminoglycoside translation inhibitor, was coupled to beads displaying a photocleavable linker (PC-HygB). UV irradiation releases hygromycin from the bead, allowing it to interact with the WG IVTT assay in the droplet. PC-HygB bead photocleavage supernatant inhibited PCSK9[1:33]-GFP translation both in a microplate assay and in microfluidic droplets (Figure 1F,G, S2). Assay statistical quality using PC-HygB positive control beads was similarly calculated (Z′ = 0.75, Figure 1H). […]
(§2) 436 Microplate IVTT Assays
(§3) 437 Wheat germ lysate IVTT plate assays were prepared as 5 µL reactions. Wheat germ lysate
(§4) 438 (3 µL) was added to test compound or vehicle control (1 µL) in a 384-well black microplate
(§5) 439 and the reaction was incubated (10 min, RT). Template (1 µL) was added and reaction
(§6) 440 progress was immediately monitored (λex = 480 nm, λem = 530 nm, 27 °C, 2 h). Rela-
(§7) 441 tive activity was calculated using the slope of fluorescence increase over time (at 15–30
(§8) 442 min post reaction initiation) for compound samples relative to that of the DMSO vehicle
443 control. […]

[2] = test system: PCSK9-FS[1:33]-GFP translation; test: WG IVTT microplate activity assay, PCSK9-FS[1:33]-GFP frameshift counter template; type: biochemical, wheat germ; details: for IC50: PCSK9-FS[1:33]-GFP template, triplicate, undetectable IC50 marked >300; for activity on PCSK9-FS[1:33]-GFP translation (in words): frameshift control
Text: as §1, §2, §3, §4, §5, §6, §7, §8
443 control. All microplate experiments contained 25 ng/µL plasmid, except for assays with
445 respectively. HeLa lysate IVTT plate assays were prepared as 5.5 µL reactions. […]

[3] = test system: PCSK9[1:33]-GFP translation; test: Microfluidic activity-based DEL screen in WG IVTT droplets, PCSK9[1:33]-GFP, hit k class by sequencing; type: biochemical, wheat germ; details: number of times hit structure observed on distinct beads, summed across PCSK9[1:33]-GFP screens; *** p < 0.001, NS not significant
Protocol: (§9) The validated PF846-inspired library was screened to discover novel translation inhibitors. DEL beads were encapsulated in microfluidic droplets of WG IVTT and irradiated with UV in flow to liberate DEL members into the droplets. The photodosed droplets were incubated and sorted based on fluorescence.[25] PCSK9[1:33]-GFP was chosen as a proof-of-concept target, and PCSK9-FS[1:33]-GFP was used as a counter screen target to identify nonselective compounds. PC-HygB were mixed with DEL beads and screened in the microfluidic device for inhibitors of translation. […] Droplet generation, bead introduction, and library and control bead hit rate were uniform during the screen (Figure 3, bottom).
(§10) Hit collection DNA tags from the PCSK9[1:33]-GFP and PCSK9-FS[1:33]-GFP screens were sequenced to deduce the structures of molecules that inhibited PCSK9[1:33]- or PCSK9-FS[1:33]-GFP translation. Hit structure k class, the number of times a given hit structure is observed on distinct beads,[31] was summed across screens and visualized as a heat map (Figure 4A). […] The combined hit sets for the two templates contained 121 unique hits with k ≥ 17 across the two screening campaigns. The most frequently observed cycle 1 starter BBs were 1 and 2, which share an 8-methylisoquinoline moiety, but differ in the vector for cycle 2 carboxylic acid connection, and 3, which contains an N-methylazaindole moiety. The most frequently identified cycle 2 tails included carboxylic acids 4–7. […] Substituted pyrazole 6 and pyridyl-benzimidazole 7 also appeared frequently with the aforementioned starters. There were 5 hits that appeared with high k class in both PCSK9[1:33]-GFP and PCSK9[1:33]-FS-GFP screening campaigns.
(§11) 319 the droplet experiment to homogenize the bead suspension. Syringes were connected to
(§12) 320 fluidic inputs with microbore Tygon tubing (0.01” x 0.03” IC × OD). Droplet generation oil
(§13) 321 (OIL1) was 1% picosurf in HFE. Spacing (OIL2) and pinning (OIL3) oils were neat HFE.
(§14) 322 Assay reagents were driven by displacement syringe pumps (Legato 100, KD Scientific,
(§15) 323 Holliston, MA) through the circuit. OIL2 and OIL3 were initially flowed (22 µL/min and
(§16) 324 12 µL/min, respectively) and hit and waste shunt tubing were clamped to backfill the
(§17) 325 circuit. Once the incubator was filled with oil, the hit and waste tubing were unclamped
(§18) 326 and back shunts were clamped. AQ1, AQ2, and OIL1 flows were initiated (960 nL/min,
(§19) 327 640 nL/min, and 1200 nL/min, respectively) and held constant during the screen. Once
(§20) 328 droplet generation equilibrated (∼10 min), the main shunt was clamped and droplets
(§21) 329 started to fill the incubator. When droplets filled the incubator and entered the sorting
(§22) 330 region, data acquisition and screening was initiated.
(§23) 331 The custom confocal LIF detection setup and LabView code were previously described.S3
(§24) 332 Briefly, photon counting PMTs (H7828, Hamamatsu, Middlesex, NJ) were used to detect
(§25) 333 droplet fluorescence emission using a custom two-channel (520 and 570 nm) confocal mi-
(§26) 334 croscope with laser excitation (488 nm, 20 mW, OBIS-488 20LS, Coherent Inc., Santa Clara,
(§27) 335 CA). A data acquisition board (DAQ, NI, USB-6341, National Instruments) was used to
(§28) 336 digitize PMT signal, which was binned into counts, and in-house LabView code was used
(§29) 337 to control acquisition and execute droplet sorting decisions. Signal was smoothed in real-
(§30) 338 time using median-filter smoothing (width = 3). Droplets were identified by the 570 nm
(§31) 339 channel signal and the maximum signal in the 520 nm channel (max = countsn-1 when
(§32) 340 countsn <countsn-1) was set as the droplet peak value. A roaming sort threshold was
(§33) 342 the 520 nm channel. The threshold was calculated as µ - 5σ, where µ andσ were the mean
(§34) 343 and standard deviation of the previous 300 droplets’ fluorescence values, respectively. Hit
(§35) 344 droplets were not included in the calculation of droplet mean and standard deviation. A […]

[4] = test system: PCSK9-FS[1:33]-GFP translation; test: Microfluidic activity-based DEL counter screen in WG IVTT droplets, PCSK9-FS[1:33]-GFP, hit k class by sequencing; type: biochemical, wheat germ; details: number of times hit structure observed on distinct beads, summed across PCSK9-FS[1:33]-GFP screens; *** p < 0.001, NS not significant
Protocol: as §9, §10, §11, §12, §13, §14, §15, §16, §17, §18, §19, §20, §21, §22, §23, §24, §25, §26, §27, §28, §29, §30, §31, §32, §33, §34, §35

IC50 [1] [µM] | SMILES | inhibition of PCSK9[1:33]-GFP translation (in words) [1] | IC50 [2] [µM] | activity on PCSK9-FS[1:33]-GFP translation (in words) [2] | k class PCSK9 [3] | k class PCSK9-FS [4]
6 ± 0.2 | Cc1cccc2ccnc(N(C(=O)[C@H]3CCCN(C(=O)c4ccc(-c5cnco5)cc4)C3)[C@@H]3CCCNC3)c12 [Compound 10, (S)-N-(8-methylisoquinolin-1-yl)-1-(4-(oxazol-5-yl)benzoyl)-N-((R)-piperidin-3-yl)piperidine-3-carboxamide] | modestly inhibited | > 300 | minimal activity | 34 | 3
19.1 ± 0.5 | Cc1c(C(=O)N2CCC(C(=O)N(c3nccc4cccc(C)c34)[C@@H]3CCCNC3)CC2)[nH]c2c1C(=O)CCC2 [Compound 11] | similarly active on both templates | 31 ± 1 | similarly active on both templates | 38 | 10
44 ± 4 | Cc1cccc2ccnc(N(C(=O)C3CCN(C(=O)C#CC4(O)CCOCC4)CC3)[C@@H]3CCCNC3)c12 [Compound 12] | similarly active on both templates | 27 ± 2 | similarly active on both templates | 31 | 3
11.2 ± 0.5 | Cc1cccc2ccnc(N(C(=O)[C@H]3CCCN(C(=O)c4ccc(N5CCCC5)nc4)C3)[C@@H]3CCCNC3)c12 [Compound 13] | modestly inhibited | > 300 | minimal activity | 39 | 4
11.4 ± 0.4 | Cc1cccc2ccnc(N(C(=O)C3CCN(C(=O)c4ccc5nc(-c6ccncc6)[nH]c5c4)CC3)[C@@H]3CCCNC3)c12 [Compound 14] | similarly active on both templates | 7.7 ± 0.1 | similarly active on both templates | 53 | 17
